Conditions: subcutaneous 5 mg in sesame oil vs rectal 15 mg (Diastat); plasma over 8 hours; FIG. 1

CN1C(=O)CN=C(c2ccccc2)c2cc(Cl)ccc21 [diazepam]
rise of levels in blood, subcutaneous delivery compared with rectal delivery: rise more quickly than via rectal delivery

Reference: patent US20040077615A1, “Novel formulations for administering therapeutic lipophilic molecules” (priority 2000, published 2004)
